Source: ChEMBL document CHEMBL3882738, “Dimethylarginine Dimethylaminohydrolase inhibitors and methods of use thereof” (2014)
The source made the active and inactive calls. The calls are words filed in the database; no cut-off is given here.

Key:
[1] = biological target: T1, N(G),N(G)-dimethylarginine dimethylaminohydrolase 1 (Homo sapiens, UniProt O94760); experiment: Inhibition of recombinant human DDAH1 expressed in Escherichia coli BL21 Star (DE3) using SMTC as substrate assessed as decrease in L-citrulline and methanethiol production at 50 uM by CPM-based fluorimetric assay
T1 sequence (O94760 whole entry): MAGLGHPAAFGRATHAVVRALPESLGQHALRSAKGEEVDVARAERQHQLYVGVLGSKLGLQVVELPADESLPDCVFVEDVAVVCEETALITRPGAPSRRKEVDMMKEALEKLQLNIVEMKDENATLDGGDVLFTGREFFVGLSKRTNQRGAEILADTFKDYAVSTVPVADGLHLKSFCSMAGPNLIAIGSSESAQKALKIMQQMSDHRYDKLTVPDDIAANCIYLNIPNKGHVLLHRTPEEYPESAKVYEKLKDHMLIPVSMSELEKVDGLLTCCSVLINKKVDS

[2] = biological target: T1, N(G),N(G)-dimethylarginine dimethylaminohydrolase 1; experiment: Inhibition of recombinant human DDAH1 expressed in Escherichia coli BL21 Star (DE3) using ADMA as substrate assessed as decrease in citrulline production at 50 uM after 4 hrs by colorimetric method
[3] = biological target: T1, N(G),N(G)-dimethylarginine dimethylaminohydrolase 1; experiment: Inhibition of recombinant human DDAH1 expressed in Escherichia coli BL21 Star (DE3) using ADMA as substrate assessed as decrease in citrulline production at 50 uM preincubated with protein followed by substrate addition by colorimetric method
[4] = biological target: T1, N(G),N(G)-dimethylarginine dimethylaminohydrolase 1; experiment: Inhibition of DDAH in human A549 cells assessed as decrease in serum-stimulated cell proliferation at 20 uM preincubated for 2 hrs followed by fetal bovine serum addition measured 24 hrs post compound treatment by BrdU incorporation assay; format: cell-based
[5] = biological target: T1, N(G),N(G)-dimethylarginine dimethylaminohydrolase 1; experiment: Inhibition of recombinant human DDAH1 expressed in Escherichia coli BL21 Star (DE3) using ADMA as substrate assessed as decrease in citrulline production after 4 hrs by colorimetric method
[6] = biological target: T1, N(G),N(G)-dimethylarginine dimethylaminohydrolase 1; experiment: Reversible inhibition of recombinant human DDAH1 expressed in Escherichia coli BL21 Star (DE3) using SMTC as substrate assessed as decrease in L-citrulline and methanethiol production at 1 to 100 times IC50 preincubated for 1 hr followed by 100 fold dilution by CPM-based fluorimetric assay
[7] = biological target: T1, N(G),N(G)-dimethylarginine dimethylaminohydrolase 1; experiment: Inhibition of DDAH in human A549 cells assessed as increase in intracellular ADMA levels at 10 to 100 uM after 24 hrs by ELISA relative to vehicle-treated control; format: cell-based
[8] = biological target: T1, N(G),N(G)-dimethylarginine dimethylaminohydrolase 1; experiment: Inhibition of DDAH in human A549 cells assessed as reduction in intracellular nitric oxide levels at 10 to 100 uM after 24 hrs by Griess assay; format: cell-based
[9] = biological target: T1, N(G),N(G)-dimethylarginine dimethylaminohydrolase 1; experiment: Inhibition of DDAH in lung fibroblasts isolated from late stage idiopathic pulmonary fibrosis patient assessed as reduction of TGF-beta-induced acid-soluble collagen levels at 50 uM after 24 hrs by sircol collagen assay
[10] = biological target: T1, N(G),N(G)-dimethylarginine dimethylaminohydrolase 1; experiment: Inhibition of DDAH in lung fibroblasts isolated from late stage idiopathic pulmonary fibrosis patient assessed as reduction of TGF-beta-induced acid-soluble collagen levels at 100 uM after 24 hrs by sircol collagen assay
[11] = biological target: T1, N(G),N(G)-dimethylarginine dimethylaminohydrolase 1; experiment: Inhibition of DDAH in human A549 cells assessed as decrease in serum-stimulated cell proliferation at 3 to 100 uM preincubated for 2 hrs followed by fetal bovine serum addition measured 24 hrs post compound treatment by BrdU incorporation assay; format: cell-based
[12] = biological target: N(G),N(G)-dimethylarginine dimethylaminohydrolase 1 (Mus musculus) (UniProt Q9CWS0); experiment: Inhibition of DDAH in mouse MLE12 cells assessed as decrease in serum-stimulated cell proliferation at 3 to 100 uM preincubated for 2 hrs followed by fetal bovine serum addition measured 24 hrs post compound treatment by BrdU incorporation assay; format: cell-based
Chain of N(G),N(G)-dimethylarginine dimethylaminohydrolase 1 (Mus musculus) (Q9CWS0 whole entry): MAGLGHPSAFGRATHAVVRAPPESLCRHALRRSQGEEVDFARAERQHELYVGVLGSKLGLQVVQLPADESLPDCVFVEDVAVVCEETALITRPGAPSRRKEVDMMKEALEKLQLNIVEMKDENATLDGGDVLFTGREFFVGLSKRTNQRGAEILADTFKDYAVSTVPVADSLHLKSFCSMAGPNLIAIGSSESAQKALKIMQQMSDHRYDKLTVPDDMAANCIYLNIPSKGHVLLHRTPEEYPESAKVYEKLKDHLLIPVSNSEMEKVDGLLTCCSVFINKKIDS

[13] = biological target: T1, N(G),N(G)-dimethylarginine dimethylaminohydrolase 1; experiment: Inhibition of DDAH in human A549 cells assessed as reduction of A23187-induced apoptosis by measuring […] in mono and oligo nucleosome content at 20 to 100 uM after 24 hrs; format: cell-based
[14] = Cytotoxicity against human A549 cells up to 300 uM by lactate dehydrogenase release assay; format: cell-based
[15] = Cytotoxicity against mouse MLE12 cells up to 300 uM by lactate dehydrogenase release assay; format: cell-based
[16] = biological target: T1, N(G),N(G)-dimethylarginine dimethylaminohydrolase 1; experiment: Inhibition of DDAH in human A549 cells assessed as downregulation of iNOS expression at 50 to 100 uM after 24 hrs by Western blot method; format: cell-based
[17] = biological target: T1, N(G),N(G)-dimethylarginine dimethylaminohydrolase 1; experiment: Inhibition of recombinant human DDAH1 expressed in Escherichia coli BL21 Star (DE3) using SMTC as substrate assessed as decrease in L-citrulline and methanethiol production by CPM-based fluorimetric assay
[18] = biological target: T1, N(G),N(G)-dimethylarginine dimethylaminohydrolase 1; experiment: Inhibition of DDAH in HMEC1 assessed as increase in intracellular ADMA levels at 20 uM after 24 hrs by ELISA relative to vehicle-treated control; format: cell-based
[19] = biological target: T1, N(G),N(G)-dimethylarginine dimethylaminohydrolase 1; experiment: Inhibition of DDAH in bronchial epithelial cells isolated from chronic obstructive pulmonary disease patient assessed as upregulation of HO1 gene expression at 5 to 50 uM after 24 hrs relative to vehicle-treated control; format: cell-based; details: Epithelial cell
[20] = biological target: T1, N(G),N(G)-dimethylarginine dimethylaminohydrolase 1; experiment: Inhibition of DDAH in fibroblasts isolated from early idiopathic pulmonary fibrosis patient assessed as upregulation of HO1 gene expression at 50 uM relative to control
[21] = biological target: T1, N(G),N(G)-dimethylarginine dimethylaminohydrolase 1; experiment: Inhibition of DDAH in fibroblasts isolated from late idiopathic pulmonary fibrosis patient assessed as upregulation of HO1 gene expression at 50 uM relative to control
[22] = biological target: T1, N(G),N(G)-dimethylarginine dimethylaminohydrolase 1; experiment: Inhibition of DDAH in fibroblasts isolated from idiopathic pulmonary fibrosis patient assessed as downregulation of ITGA5 gene expression at 5 to 50 uM relative to vehicle-treated control
[23] = biological target: T1, N(G),N(G)-dimethylarginine dimethylaminohydrolase 1; experiment: Inhibition of DDAH in fibroblasts isolated from idiopathic pulmonary fibrosis patient assessed as downregulation of ITGB1 gene expression at 5 to 50 uM relative to vehicle-treated control
[24] = biological target: T1, N(G),N(G)-dimethylarginine dimethylaminohydrolase 1; experiment: Inhibition of DDAH in fibroblasts isolated from idiopathic pulmonary fibrosis patient assessed as downregulation of ITGB3 gene expression at 5 to 50 uM relative to vehicle-treated control
[25] = biological target: T1, N(G),N(G)-dimethylarginine dimethylaminohydrolase 1; experiment: Inhibition of DDAH in fibroblasts isolated from idiopathic pulmonary fibrosis patient assessed as downregulation of ITGB5 gene expression at 5 to 50 uM relative to vehicle-treated control
[26] = biological target: T1, N(G),N(G)-dimethylarginine dimethylaminohydrolase 1; experiment: Inhibition of DDAH in fibroblasts isolated from idiopathic pulmonary fibrosis patient assessed as downregulation of ITGB6 gene expression at 5 to 50 uM relative to vehicle-treated control
[27] = biological target: T1, N(G),N(G)-dimethylarginine dimethylaminohydrolase 1; experiment: Inhibition of DDAH in fibroblasts isolated from idiopathic pulmonary fibrosis patient assessed as downregulation of ITGB8 gene expression at 5 to 50 uM relative to vehicle-treated control
[28] = biological target: T1, N(G),N(G)-dimethylarginine dimethylaminohydrolase 1; experiment: Inhibition of DDAH in fibroblasts isolated from idiopathic pulmonary fibrosis patient assessed as downregulation of TGFB1 gene expression at 5 to 50 uM relative to vehicle-treated control
[29] = biological target: T1, N(G),N(G)-dimethylarginine dimethylaminohydrolase 1; experiment: Inhibition of DDAH in fibroblasts isolated from idiopathic pulmonary fibrosis patient assessed as downregulation of TGFBR1 gene expression at 5 to 50 uM relative to vehicle-treated control
[30] = biological target: T1, N(G),N(G)-dimethylarginine dimethylaminohydrolase 1; experiment: Inhibition of DDAH in fibroblasts isolated from idiopathic pulmonary fibrosis patient assessed as downregulation of TGFBR2 gene expression at 5 to 50 uM relative to vehicle-treated control
[31] = biological target: T1, N(G),N(G)-dimethylarginine dimethylaminohydrolase 1; experiment: Inhibition of DDAH in fibroblasts isolated from idiopathic pulmonary fibrosis patient assessed as downregulation of BMP2 gene expression at 5 to 50 uM relative to vehicle-treated control
[32] = biological target: T1, N(G),N(G)-dimethylarginine dimethylaminohydrolase 1; experiment: Inhibition of DDAH in fibroblasts isolated from idiopathic pulmonary fibrosis patient assessed as downregulation of BMP4 gene expression at 5 to 50 uM relative to vehicle-treated control
[33] = biological target: T1, N(G),N(G)-dimethylarginine dimethylaminohydrolase 1; experiment: Inhibition of DDAH in fibroblasts isolated from idiopathic pulmonary fibrosis patient assessed as downregulation of […] gene expression at 5 to 50 uM relative to vehicle-treated control
[34] = biological target: T1, N(G),N(G)-dimethylarginine dimethylaminohydrolase 1; experiment: Inhibition of DDAH in fibroblasts isolated from idiopathic pulmonary fibrosis patient assessed as downregulation of BMPR1B gene expression at 5 to 50 uM relative to vehicle-treated control
[35] = biological target: T1, N(G),N(G)-dimethylarginine dimethylaminohydrolase 1; experiment: Inhibition of DDAH in fibroblasts isolated from idiopathic pulmonary fibrosis patient assessed as downregulation of BMPR2 gene expression at 5 to 50 uM relative to vehicle-treated control
[36] = biological target: T1, N(G),N(G)-dimethylarginine dimethylaminohydrolase 1; experiment: Inhibition of DDAH in fibroblasts isolated from idiopathic pulmonary fibrosis patient assessed as downregulation of SMAD6 gene expression at 5 to 50 uM relative to vehicle-treated control
[37] = biological target: T1, N(G),N(G)-dimethylarginine dimethylaminohydrolase 1; experiment: Inhibition of DDAH in fibroblasts isolated from idiopathic pulmonary fibrosis patient assessed as downregulation of MMP8 gene expression at 5 to 50 uM relative to vehicle-treated control
[38] = biological target: T1, N(G),N(G)-dimethylarginine dimethylaminohydrolase 1; experiment: Inhibition of DDAH in fibroblasts isolated from chronic obstructive pulmonary disease patient assessed as upregulation of HO1 gene expression at 5 to 50 uM after 24 hrs relative to vehicle-treated control
[39] = biological target: T1, N(G),N(G)-dimethylarginine dimethylaminohydrolase 1; experiment: Inhibition of DDAH in bronchial epithelial cells isolated from chronic obstructive pulmonary disease patient assessed as downregulation of TNF-alpha gene expression at 5 to 50 uM after 24 hrs relative to vehicle-treated control; format: cell-based; details: Epithelial cell
[40] = biological target: T1, N(G),N(G)-dimethylarginine dimethylaminohydrolase 1; experiment: Inhibition of DDAH in bronchial epithelial cells isolated from chronic obstructive pulmonary disease patient assessed as downregulation of TRPV1 gene expression at 5 to 50 uM after 24 hrs relative to vehicle-treated control; format: cell-based; details: Epithelial cell
[41] = biological target: N(G),N(G)-dimethylarginine dimethylaminohydrolase 1 (Mus musculus) (UniProt Q9CWS0); experiment: Inhibition of DDAH in mouse MLE12 cells assessed as decrease in serum-stimulated cell proliferation at 50 to 100 uM preincubated for 2 hrs followed by fetal bovine serum addition measured 24 hrs post compound treatment by BrdU incorporation assay; format: cell-based
[42] = biological target: T1, N(G),N(G)-dimethylarginine dimethylaminohydrolase 1; details: A549, 50 to 100 uM
Description: Inhibition of DDAH in human A549 cells assessed as decrease in serum-stimulated cell proliferation at 50 to 100 uM preincubated for 2 hrs followed by fetal bovine serum addition measured 24 hrs post compound treatment by BrdU incorporation assay

[43] = biological target: T1, N(G),N(G)-dimethylarginine dimethylaminohydrolase 1; experiment: Inhibition of DDAH in lung fibroblasts isolated from late stage idiopathic pulmonary fibrosis patient assessed as reduction of TGF-beta-induced acid-soluble collagen levels at 20 uM after 24 hrs by sircol collagen assay
[44] = biological target: Transforming growth factor beta (Homo sapiens) (UniProt P01137+P61812+P10600); experiment: Inhibition of TGF-beta-induced acid-soluble collagen levels in lung fibroblasts isolated from late stage idiopathic pulmonary fibrosis patient at 20 uM after 24 hrs by sircol collagen assay; format: protein assay
Chain of Transforming growth factor beta (Homo sapiens) (P01137 whole entry, looked up): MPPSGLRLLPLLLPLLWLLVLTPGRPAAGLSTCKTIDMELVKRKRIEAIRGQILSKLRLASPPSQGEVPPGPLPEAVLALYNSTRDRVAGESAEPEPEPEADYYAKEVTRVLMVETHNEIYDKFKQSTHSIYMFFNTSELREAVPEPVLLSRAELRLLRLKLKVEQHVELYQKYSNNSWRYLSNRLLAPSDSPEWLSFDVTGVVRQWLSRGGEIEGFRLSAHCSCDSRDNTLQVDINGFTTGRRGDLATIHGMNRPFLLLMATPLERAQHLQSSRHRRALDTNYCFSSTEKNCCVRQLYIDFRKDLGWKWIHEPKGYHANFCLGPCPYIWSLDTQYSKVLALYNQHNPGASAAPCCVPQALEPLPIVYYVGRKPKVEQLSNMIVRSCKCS
Chain of Transforming growth factor beta (Homo sapiens) (P10600 whole entry, looked up): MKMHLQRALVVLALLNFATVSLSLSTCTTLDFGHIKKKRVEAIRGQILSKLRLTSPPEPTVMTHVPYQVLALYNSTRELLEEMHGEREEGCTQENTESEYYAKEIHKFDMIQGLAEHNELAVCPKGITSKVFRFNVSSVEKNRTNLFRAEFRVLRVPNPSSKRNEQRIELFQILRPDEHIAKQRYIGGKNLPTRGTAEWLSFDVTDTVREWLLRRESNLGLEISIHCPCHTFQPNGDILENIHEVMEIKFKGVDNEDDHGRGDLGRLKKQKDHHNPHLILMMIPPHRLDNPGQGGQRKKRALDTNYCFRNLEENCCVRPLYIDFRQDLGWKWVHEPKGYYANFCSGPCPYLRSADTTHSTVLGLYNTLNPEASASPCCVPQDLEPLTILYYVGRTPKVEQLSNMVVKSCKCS
Chain of Transforming growth factor beta (Homo sapiens) (P61812 whole entry, looked up): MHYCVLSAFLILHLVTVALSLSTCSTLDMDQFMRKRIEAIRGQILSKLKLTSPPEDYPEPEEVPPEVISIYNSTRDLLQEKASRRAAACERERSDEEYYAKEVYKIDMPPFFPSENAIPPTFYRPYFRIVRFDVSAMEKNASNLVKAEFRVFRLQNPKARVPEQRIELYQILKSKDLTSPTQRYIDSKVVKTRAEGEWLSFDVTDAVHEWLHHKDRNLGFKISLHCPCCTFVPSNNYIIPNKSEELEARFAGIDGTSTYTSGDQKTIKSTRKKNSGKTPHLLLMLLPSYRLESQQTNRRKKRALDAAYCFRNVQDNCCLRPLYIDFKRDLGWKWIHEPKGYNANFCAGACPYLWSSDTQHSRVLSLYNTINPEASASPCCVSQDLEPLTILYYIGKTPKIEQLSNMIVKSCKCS

COCCCOc1ccnc(C[S+]([O-])c2nc3ccccc3[nH]2)c1C (stereo not drawn)
inhibition [1]: Active | inhibition [2]: Active | inhibition [3]: Active | inhibition [4]: Active

COc1ccc2[nH]c([S+]([O-])Cc3ncc(C)c(OC)c3C)nc2c1 (stereo not drawn) [OMEPRAZOLE]
IC50 [5]: 20 to 85 µM | inhibition [5]: Dose-dependent effect | inhibition [1]: Active | inhibition [2]: Active | inhibition [3]: Active | inhibition [6]: Active | inhibition [7]: Active | inhibition [8]: Active | inhibition [9]: Active | inhibition [10]: Active | inhibition [11]: Active | inhibition [12]: Active | inhibition [13]: Active | Activity [14]: Non-Toxic | Activity [15]: Non-Toxic | inhibition [16]: Active

CC1=CC(=O)C=C(C)C1=NS(=O)(=O)c1ccccc1
IC50 [17]: 9.03 µM

COc1ccc2[nH]c([S@@+]([O-])Cc3ncc(C)c(OC)c3C)nc2c1
inhibition [1]: Active | inhibition [2]: Active | inhibition [3]: Active | inhibition [18]: 37% | inhibition [4]: Active | fold change (FC) [19]: 4 | fold change (FC) [20]: 5 | fold change (FC) [21]: 2.5 | inhibition [22]: Active | inhibition [23]: Active | inhibition [24]: Active | inhibition [25]: Active | inhibition [26]: Active | inhibition [27]: Active | inhibition [28]: Active | inhibition [29]: Active | inhibition [30]: Active | inhibition [31]: Active | inhibition [32]: Active | inhibition [33]: Active | inhibition [34]: Active | inhibition [35]: Active | inhibition [36]: Active | inhibition [37]: Active | fold change (FC) [38]: 10 | inhibition [39]: Active | inhibition [40]: Active

COc1ccnc(C[S+]([O-])c2nc3cc(OC(F)F)ccc3[nH]2)c1OC (stereo not drawn) [PANTOPRAZOLE]
IC50 [5]: 63 µM

COCCNC(=N)NCCC[C@H](N)C(=O)O
inhibition [18]: 68% | inhibition [9]: Active | inhibition [41]: Active | inhibition [42]: Active

Cc1c(OCC(F)(F)F)ccnc1C[S+]([O-])c1nc2ccccc2[nH]1 (stereo not drawn)
inhibition [5]: Dose-dependent effect | inhibition [1]: Active | inhibition [2]: Active | inhibition [3]: Active | inhibition [43]: Active | inhibition [4]: Active

CC1=CC(=O)C(Cl)=C(C)/C1=N/S(=O)(=O)c1ccc(C)cc1
IC50 [17]: 5.5 µM

Cc1cccc(-c2nn(C(=S)Nc3ccccc3)cc2-c2ccnc3ccccc23)n1
inhibition [44]: Active

4-[sequence] ACID
inhibition [17]: Active

COc1ccc2[nH]c([S+]([O-])Cc3ncc(C)c(OC)c3C)nc2n1 (stereo not drawn)
inhibition [5]: Dose-dependent effect | inhibition [2]: Active | inhibition [3]: Active

CP(=O)(O)c1nc2ccccc2s1
IC50 [5]: 9.9 µM

C/N=c1\nc(-c2ccccc2)n(-c2ccccc2)s1
IC50 [17]: 13.2 µM

O=c1c2ccccc2[se]n1-c1ccccc1
inhibition [17]: Active

N=C1Sc2ccccc2C2=NCCCN12
inhibition [17]: Dose-dependent effect | inhibition [1]: Active | inhibition [2]: Active | inhibition [18]: 84%

PHENYLMERCURIC ACETATE
IC50 [17]: < 0.78 µM
